Several values for one entry are separate records, joined by “and”; a condition that tells them apart may be missing. Equal entries are not always repeated.
The compounds below were run against T1, GPR139 (Homo sapiens, UniProt Q6DWJ6) (assay: Calcium mobilization assay (FLIPR), GPR139 expressed in HEK293 cells). Details: 300 μM; calcium mobilization as percentage of that observed for L-phenylalanine.
T1 sequence (Q6DWJ6 1-353): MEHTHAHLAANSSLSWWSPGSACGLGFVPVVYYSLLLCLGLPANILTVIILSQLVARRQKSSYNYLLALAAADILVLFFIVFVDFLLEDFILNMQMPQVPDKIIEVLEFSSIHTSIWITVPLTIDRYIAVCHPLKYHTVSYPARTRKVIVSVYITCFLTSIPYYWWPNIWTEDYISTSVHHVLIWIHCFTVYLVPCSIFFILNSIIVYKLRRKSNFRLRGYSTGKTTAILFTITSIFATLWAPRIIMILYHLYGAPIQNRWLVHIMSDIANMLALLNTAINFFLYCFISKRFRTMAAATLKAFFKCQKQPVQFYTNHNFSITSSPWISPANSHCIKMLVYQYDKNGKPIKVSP
Assay type: cell-based
Parameters: expressed in transfected cells; host or cells: HEK293 (transient)
Experimental: FIG. 3A and FIG. 3B: Provides the results of experiments conducted to determine whether Trp and its derivatives (FIG. 3A) and Phe and its derivatives (FIG. 3B) stimulate Ca^2+ mobilization in HEK293 cells expressing GPR139.
The active compounds were also tested in a calcium mobilization assay (FLIPR® assay). For these experiments human GPR139 was transiently expressed in HEK293 cells and calcium mobilization was stimulated using L-Trp, L-Phe or their derivatives. […] The concentrations of L-Trp and L-Phe in many cell culture media (for instance DMEM is about 80 μM and 750 μM respectively) are close to the EC50 values of L-Trp and L-Phe for GPR139. […] This may explain why GPR139 appeared constitutively active when recombinantly expressed in mammalian cells.
About 300 additional phenylalanine analogues have been tested for GPR139 activation using a calcium mobilization (FLIPR®) assay. The results of these experiments indicate that many of these analogues can also activate GPR139. Table 4 lists certain phenylalanine analogues that have been determined to activate GPR139 by calcium mobilization at a concentration of 300 μM (calcium mobilization is expressed as percentage of that observed for L-phenylalanine).
For `N[C@@H](Cc1ccc(Br)s1)C(=O)O` [2-(5-bromothienyl)-L-alanine], the “% L-phenylalanine at 300 μM (average), calcium mobilization” value (shortened to “% L-phenylalanine … calcium mobilization”) was 151 % L-phenylalanine.
For `CC(C)(C)OC(=O)N1Cc2ccccc2C[C@@H]1C(=O)O` [(3R)-2-tert-butoxycarbony 1-3,4-dihydro-1H-isoquinoline-3-carboxylic acid], the “% L-phenylalanine … calcium mobilization” value was 155 % L-phenylalanine.
In the case of `O=C(O)[C@@H]1Cc2c([nH]c3ccccc23)CN1` [L-1,2,3,4-tetrahydronorharman-3-carboxylic acid], the “% L-phenylalanine … calcium mobilization” value is reported as 151 % L-phenylalanine.
For `N[C@H](CCc1ccccc1)C(=O)O` [d-Homo-phenylalanine], the “% L-phenylalanine … calcium mobilization” value was 105 % L-phenylalanine.
S-(5-bromothienyl)-D-alanine was tested, and the “% L-phenylalanine … calcium mobilization” value was 154 % L-phenylalanine.
In the case of S-Nitro-L-phenylalanine, the “% L-phenylalanine … calcium mobilization” value is reported as 150 % L-phenylalanine.

Same assay, conditions: HEK293, read-out: % L-phenylalanine at 300 μM (average), calcium mobilization
`N[C@@H](Cc1ccc([N+](=O)[O-])cc1[N+](=O)[O-])C(=O)O` [2,4-Dinitro-L-phenylalanine] was tested, and the Emax at 300 µM was 95%.
For `N[C@H](Cc1ccc(Br)cc1)C(=O)O` [4-Bromo-D-phenylalanine], the Emax at 300 µM was 139%.
Work on `N[C@@H](Cc1ccc(Br)cc1)C(=O)O` [4-Bromo-L-phenylalanine] yielded an Emax at 300 µM of 153%.

Same assay, conditions: HEK293; 300 μM; calcium mobilization as percentage of that observed for L-phenylalanine; read-out: % L-phenylalanine at 300 μM (average), calcium mobilization
Compound `N[C@H](Cc1c(F)c(F)c(F)c(F)c1F)C(=O)O` [2,3,4,5,6-P entafluoro-D-phenylalanine] has an Emax at 300 µM of 145%.
Compound `N[C@H](Cc1ccc(Cl)cc1Cl)C(=O)O` [2,4-Dichloro-D-phenylalanine] has an Emax at 300 µM of 135%.
For `N[C@@H](Cc1ccc(Cl)cc1Cl)C(=O)O` [2,4-Dichloro-L-phenylalanine], the Emax at 300 µM was 122%.
With `Cc1ccc(C[C@@H](N)C(=O)O)c(C)c1` [2,4-Dimethyl-D-phenylalanine] the Emax at 300 µM was 101%.
Compound `Cc1ccc(C[C@H](N)C(=O)O)c(C)c1` [2,4-Dimethyl-L-phenylalanine] has an Emax at 300 µM of 113%.
`N[C@H](Cc1ccccc1Br)C(=O)O` [2-Bromo-D-phenylalanine] gave an Emax at 300 µM of 135%.
Compound `N[C@@H](Cc1ccccc1Br)C(=O)O` [2-Bromo-L-phenylalanine] has an Emax at 300 µM of 168%.
In the case of `N[C@@H](Cc1ccccc1F)C(=O)O` [2-Fluoro-L-phenylalanine], the Emax at 300 µM is reported as 119%.
Work on `Cc1ccccc1C[C@@H](N)C(=O)O` [2-Methyl-D-phenylalanine] yielded an Emax at 300 µM of 109%.
Work on `Cc1ccccc1C[C@H](N)C(=O)O` [2-Methyl-L-phenylalanine] yielded an Emax at 300 µM of 134%.
Compound `N[C@@H](Cc1ccccc1C(F)(F)F)C(=O)O` [2-Trifluoromethyl-L-phenylalanine] has an Emax at 300 µM of 110%.
With `N[C@H](C(=O)O)C(c1ccccc1)c1ccccc1` [3,3-Diphenyl-L-alanine] the Emax at 300 µM was 117%.
For `N[C@H](Cc1ccc(Cl)c(Cl)c1)C(=O)O` [3,4-Dichloro-D-phenylalanine], the Emax at 300 µM was 149%.
Compound `N[C@@H](Cc1ccc(Cl)c(Cl)c1)C(=O)O` [3,4-Dichloro-L-phenylalanine] has an Emax at 300 µM of 149%.
In the case of `N[C@H](Cc1ccc(F)c(F)c1)C(=O)O` [3,4-Difluoro-D-phenylalanine], the Emax at 300 µM is reported as 121%.
`N[C@H](Cc1cc(F)cc(F)c1)C(=O)O` [3,5-Difluoro-D-phenylalanine] was tested, and the Emax at 300 µM was 102%.
Compound `N[C@H](Cc1cccc(Br)c1)C(=O)O` [3-Bromo-D-phenylalanine] has an Emax at 300 µM of 172%.
For `N[C@@H](Cc1cccc(Br)c1)C(=O)O` [3-Bromo-L-phenylalanine], the Emax at 300 µM was 167%.
In the case of `N[C@H](Cc1cccc(Cl)c1)C(=O)O` [3-Chloro-D-phenylalanine], the Emax at 300 µM is reported as 147%.
`N[C@@H](Cc1cccc(Cl)c1)C(=O)O` [3-Chloro-L-phenylalanine] was tested, and the Emax at 300 µM was 145%.
With `N#Cc1cccc(C[C@@H](N)C(=O)O)c1` [3-Cyano-D-phenylalanine] the Emax at 300 µM was 93%.
For `N#Cc1cccc(C[C@H](N)C(=O)O)c1` [3-Cyano-L-phenylalanine], the Emax at 300 µM was 115%.
For `N[C@H](Cc1cccc(F)c1)C(=O)O` [3-Fluoro-D-phenylalanine], the Emax at 300 µM was 94%.
Work on `N[C@@H](Cc1cccc(F)c1)C(=O)O` [3-Fluoro-L-phenylalanine] yielded an Emax at 300 µM of 114%.
Compound `Cc1cccc(C[C@@H](N)C(=O)O)c1` [3-Methyl-D-phenylalanine] has an Emax at 300 µM of 150%.
Compound `Cc1cccc(C[C@H](N)C(=O)O)c1` [3-Methyl-L-phenylalanine] has an Emax at 300 µM of 147%.
With `N[C@H](Cc1cccc([N+](=O)[O-])c1)C(=O)O` [3-Nitro-D-Phenylalanin] the Emax at 300 µM was 164%.
For `N[C@@H](Cc1cccc([N+](=O)[O-])c1)C(=O)O` [3-Nitro-L-phenylalanine], the Emax at 300 µM was 131%.
`N[C@@H](Cc1cccc(C(F)(F)F)c1)C(=O)O` [3-Trifluoromethyl-L-phenylalanine] was tested, and the Emax at 300 µM was 133%.
`N[C@H](Cc1ccc(Cl)cc1)C(=O)O` [4-Chloro-D-phenylalanine] gave an Emax at 300 µM of 110%.
With `N[C@@H](Cc1ccc(Cl)cc1)C(=O)O` [4-Chloro-L-phenylalanine] the Emax at 300 µM was 146%.
With `N[C@H](Cc1ccc(F)cc1)C(=O)O` [4-Fluoro-D-phenylalanine] the Emax at 300 µM was 91%.
`N[C@@H](Cc1ccc(F)cc1)C(=O)O` [4-Fluoro-L-phenylalanine] was tested, and the Emax at 300 µM was 132%.
`N[C@H](Cc1ccc(I)cc1)C(=O)O` [4-Iodo-D-phenylalanine] showed an Emax at 300 µM of 125%.
In the case of `N[C@@H](Cc1ccc(I)cc1)C(=O)O` [4-Iodo-L-phenylalanine], the Emax at 300 µM is reported as 116%.
In the case of `COc1ccc(C[C@H](N)C(=O)O)cc1` [4-Methoxy-L-phenylalanine], the Emax at 300 µM is reported as 128%.
For `Cc1ccc(C[C@@H](N)C(=O)O)cc1` [4-Methyl-D-phenylalanine], the Emax at 300 µM was 102%.
Work on `Cc1ccc(C[C@H](N)C(=O)O)cc1` [4-Methyl-L-phenylalanine] yielded an Emax at 300 µM of 149%.
In the case of `N[C@H](Cc1ccc([N+](=O)[O-])cc1)C(=O)O` [4-Nitro-D-phenylalanine], the Emax at 300 µM is reported as 111%.
Work on `N[C@@H](Cc1ccc(C(F)(F)F)cc1)C(=O)O` [4-Trifluoromethyl-L-phenylalanine] yielded an Emax at 300 µM of 150%.
`CC(C)(C)c1ccc(C[C@H](N)C(=O)O)cc1` [4-tert-Butyl-L-phenylalanine] gave an Emax at 300 µM of 115%.
`N[C@H](CCCc1ccccc1)C(=O)O` [D-2-Amino-5-phenyl-pentanoic acid] was tested, and the Emax at 300 µM was 129%.
`C[C@](N)(Cc1ccc(F)cc1)C(=O)O` [α-methyl-4-Fluoro-L-phenylalanine] showed an Emax at 300 µM of 125%.

These compounds were tested on GO2Q alone (assay: GTPγS binding assay, control COS7 membranes expressing GO2Q alone (Ct-GO2Q)). Details: not given.
Assay type: biochemical
Experimental: (§1) In order identify the ligands for GPR139 two improvements in the detection assay were made to allow for the ligands to be detected. First, we chose to use a GTPγS binding assay instead of using live cultured cells. The GTPγS binding assay is a cell free system that uses the cell membrane of the cell(s) of interest rather than the live cell(s). One advantage of this assay is that potential ligands present in the cell culture media are washed away when the cell membrane is prepared. This reduces the basal level of signal and increase the chance of detecting receptor ligands when assessing compounds that activate the receptor. Second, a GO2Q chimeric G-protein was created to be co-expressed with GPR139 in order to increase the signal-to-noise ratio in the GTPγS binding assay. Historically, the Gi, Go coupled GPCRs offer much greater signal-to-noise ratio in GTPγS binding studies. For Gs and Gq coupled GPCRs, although ligand-stimulated specific signals can be detected in a GTPγS binding assay, the signal-to-noise ratios are often very small. To address this a chimeric GO2-Gq chimeric G-protein, GO2Q, with the N-terminus from Go2 protein and the C-terminus from Gq protein.
(§2) To test for compounds that activate GPR139, different amino acids and their derivatives (Table 2) were tested as ligands in the GTPγS binding assay using cell membranes from COS7 cells co-expressing GPR139 and GO2Q. Cell membrane from COS7 cells expressing GO2Q alone or co-expressing other GPCRs were also tested in GTPγS binding assay in parallel as controls. Each compound was tested in triplicate.
`N=C(N)NCCC[C@H](N)C(=O)O` [Arg] was tested, and the “Activation levels (GTPγS binding), Ct-GO2Q” value (“Activation levels … Ct-GO2Q” below) was 2171 and 2131 and 2255.

Same assay, conditions: 1 mM final concentration; COS7 membranes expressing GO2Q alone; single wells of triplicate
In the case of `CNCC(O)c1ccc(O)c(O)c1` (stereo not shown) [Adrenaline], the “Activation levels … Ct-GO2Q” value is reported as 2240 and 2117 and 2045.
In the case of `C[C@H](N)C(=O)O` [Ala], the “Activation levels … Ct-GO2Q” value is reported as 1903 and 2049 and 2139.
With `NC(=O)C[C@H](N)C(=O)O` [Asn] the “Activation levels … Ct-GO2Q” value was 2195 and 2142 and 2133.
With `N[C@@H](CC(=O)O)C(=O)O` [Asp] the “Activation levels … Ct-GO2Q” value was 2177 and 2137 and 2132.
`N[C@@H](CS)C(=O)O` [Cys] was tested, and the “Activation levels … Ct-GO2Q” value was 1928 and 2132 and 2114.

Each compound was assayed against T1, GPR139 (assay: GTPγS binding assay, single-concentration screen, COS7 membranes co-expressing GPR139 and GO2Q). Details: 1 mM final concentration; COS7 membranes co-expressing GPR139 and GO2Q; single wells of triplicate.
Assay type: biochemical
Parameters: expressed in transfected cells; host or cells: COS7 (membranes)
Experimental: as §1, §2
`CNCC(O)c1ccc(O)c(O)c1` (stereo not shown) [Adrenaline] was tested, and the “Activation levels of GPR139 (GTPγS binding), GPR139-GO2Q” value (“Activation levels of GPR139” for short) was 2721 and 2624 and 2670.
With `C[C@H](N)C(=O)O` [Ala] the “Activation levels of GPR139” value was 2363 and 2348 and 2439.
With `N=C(N)NCCC[C@H](N)C(=O)O` [Arg] the “Activation levels of GPR139” value was 2806 and 2783 and 2528.
With `NC(=O)C[C@H](N)C(=O)O` [Asn] the “Activation levels of GPR139” value was 2806 and 2483 and 2547.
In the case of `N[C@@H](CC(=O)O)C(=O)O` [Asp], the “Activation levels of GPR139” value is reported as 2758 and 2922 and 2925.
In the case of `N[C@@H](CS)C(=O)O` [Cys], the “Activation levels of GPR139” value is reported as 2168 and 2458 and 2336.
